What was measured:
Viscosity evaluation = assay type: physicochemical; conditions: ICG 50 mg/ml to 75 mg/ml, WFI as the lone diluent

SMILES	consistency of composition (Viscosity evaluation)	solubility in WFI versus inventive diluent (lyophilized (amorphous) material)	solubility in WFI (non-lyophilized, crystalline material)
CC1(C)C(/C=C/C=C/C=C/C=C2\N(CCCCS(=O)(=O)O)c3ccc4ccccc4c3C2(C)C)=[N+](CCCCS(=O)(=O)[O-])c2ccc3ccccc3c21 [ICG, Indocyanine green]	paste-like consistency	comparable up to 25 mg/ml, wherein the inventive diluent is superior at concentrations above that level	
CC1(C)C(/C=C/C=C/C=C/C=C2\N(CCCCS(=O)(=O)O)c3ccc4ccccc4c3C2(C)C)=[N+](CCCCS(=O)(=O)[O-])c2ccc3ccccc3c21 [crystalline ICG, Indocyanine green]			low solubility in WFI
